Laboratory results taken from patent US10414741B2, “Amorphous vortioxetine and salts thereof” (CADILA HEALTHCARE LIMITED, priority 2013, dated 2019).

Test: stability of amorphous form under normal stability conditions
Assay type: physicochemical
Excerpt: Therefore, there is no physical change observed from amorphous form to crystalline form during the stability.
In further aspect, the stable amorphous vortioxetine free base or vortioxetine hydrobromide can be stored under nitrogen atmosphere and packed in a double polythene bag tied with a thread, keeping primary packing containing amorphous vortioxetine or vortioxetine hydrobromide inside a black color polyethylene bag containing oxygen busters and sealing it, placing above the double polyethylene bag inside a triple laminated bag optionally containing oxygen busters and sealing it, and placing the sealed triple laminated bag inside a closed high density polyethylene (HDPE) container and storing in controlled environment chamber at 25° C. and/or 40° C.

stability of amorphous form (physical change from amorphous form to crystalline form): stable under normal stability conditions
Structure (SMILES): Cc1ccc(Sc2ccccc2N2CCNCC2)c(C)c1 [amorphous vortioxetine free base, 1-{2-[(2,4-dimethylphenyl)sulfanyl]phenyl}piperazine]
